# Measured values published in publication PMC10974294, “Addressing the ADME Challenges of Compound Loss in a PDMS-Based Gut-on-Chip Microphysiological System” (Pharmaceutics, 2024).
# Counter-ions that a name gives are not always drawn.
# Experiments:
# [1] = Compound loss (PDMS ad- and absorption) in cell-free organ-chips; assay type: in vitro ADME; conditions: for Compound Loss Bottom Channel (%) / Compound Loss Top Channel (%): 10 µM per drug in cocktail, outlet vs inlet after one hour at 200 µL/h, mean of two experiments
# Text: S-1® Organ-Chips from Emulate Inc. (Boston, MA, USA) comprise 2 parallel channels (top and bottom) for cell culture, which are superimposed and separated via a porous membrane, all made of polydimethylsiloxane (PDMS). The 50 µm thick membrane contains pores of a diameter of 7 µm, which are spaced 40 µm apart from each other. In addition, 2 more channels, in which a vacuum can be applied to laterally stretch the cell culture channels, flank the cell culture channels horizontally. The top channel has a size of 1000 × 1000 µm (width × height), a culture area of 28 mm^2, and a volume of 28 µL. The bottom channel has a size of 1000 × 200 µm (width × height), a culture area of 24.5 mm^2, and a volume of 5.6 µL. Both channels share an area of 17.1 mm^2 of the porous membrane as a coculture area. To conduct experiments, each organ-chip is inserted into a cell culture container called Pod®, which connects 4 physically separated fluid reservoirs with the in- and outlets of the top and bottom channels. […] The Zoë module controls, as well as regulates, the vacuum and pressured gas flows generated by the Orb hub module, which also powers the Zoë module.
# Compound loss experiments in cell-free organ-chips were performed with used chips after removal of the cells and washing-out of previously perfused compounds (Section 4). […] The compound concentrations in the outlets were measured via liquid chromatography-tandem mass spectrometry (LC-MS/MS, Section 2.8) after a period of one hour, with a flow rate of 200 µL/h (manufacturer’s instruction), and relatively compared to the inlet concentrations, and the difference was reported as the percent drug absorbed. The experiments were performed in duplicate.
# Caco-2/HUVEC gut-on-chip [2] = test: Metabolite identification in Caco-2/HUVEC gut-on-chip; conditions: for fraction of the total amount of all metabolites (peak areas): testosterone 10 µM perfused 2 h at 200 µL/h, top and bottom outlets
# Description: The analysis was performed on an LC-MS system containing a Vanquish UPLC (ThermoFisher Scientific, San Jose, CA, USA) coupled to an Orbitrap FusionTribrid high-resolution mass spectrometer (ThermoFisher Scientific). The structural elucidation was based on exact mass measurements in combination with the interpretation of fragment spectra.
# [3] = Time-resolved testosterone loss and chip-specific clearance in cell-free organ-chips
# Description: The cell-free organ-chips were previously utilized in experiments with cells and were prepared in the same way as described for the compound loss studies above. The Caco-2/HUVEC gut-on-chip was cultivated under the conditions described for standard cell culture until day 13. […] An introduction step with a high flow rate of 600 µL/h is recommended by the manufacturer to “saturate” the ad- and absorptions of compounds by the PDMS material. The necessity of this step will be discussed in Section 3 and Section 4. After the introduction step, both outlets were aspirated. […] During the sampling, the flow was stopped for a few seconds, a Pod®, which included a chip, was removed from the Zoë, a single chip removed from the Pod®, and samples were taken. The samples from the bottom outlet were used directly for bioanalytical quantification. The samples from the top inlet and top outlet were sampled from the respective reservoirs and diluted 1:50 (v/v) in transport buffer. The chips were subsequently dismantled from the Pods, and samples from the top channel and bottom channel were taken with a pipette via the outlets (Figure 1A). The samples from the top channel were diluted 1:50 (v/v) and the samples from the bottom channel 1:2 (v/v) in transport buffer.
# The outlet reservoirs contained, therefore, perfusates from time zero to time point t. […] A period of 60 min was chosen because it was recommended by the manufacturer for diverse applications. […] For time points before 60 min, Ct,last was identical to Ct,cum by definition. Vt is the total volume of perfusate collected from time zero to t. Vt was calculated with the following equation:(4) Vt=t÷60×Q
# The time profiles of Ct,last in the cell-free organ-chips and in the Caco-2/HUVEC gut-on-chip are shown in Figure 6A,B. Using Ct,last, the compound loss can be calculated in each putative collecting period of 60 min with the following equation:(5) Losst=Cinlet−Ct, last, top−Ct, last, bottom×Q
# Caco-2/HUVEC gut-on-chip [4] = test: Time-resolved testosterone loss, clearance, permeability and mass balance in Caco-2/HUVEC gut-on-chip
# Description: The Caco-2/HUVEC gut-on-chip was prepared according to the Caco-2/HUVEC gut-on-chip protocol provided by Emulate Inc. Briefly, on day −1 of the protocol, the PDMS membrane was activated using Emulate reagent (ER) 1 dissolved in ER 2 solution at a concentration of 0.5 mg/mL. The top channels were filled with 50 µL and the bottom channels with 20 µL of ER 1 solution and then treated under UV light for 10 min. Next, activated ER 1 solution was aspirated from both channels and exchanged with fresh ER 1 solution after which the chips were again exposed to UV light for 5 min. The two channels were then subsequently washed with ER 2 solution followed by ice-cold PBS. After the PBS was fully aspirated from both channels, the chips were coated with 100 µg/mL Matrigel and 30 µg/mL collagen type I in PBS overnight at 37 °C. On day 0 of the protocol, both channels were washed with HUVEC culture medium before 0.14 × 10^6 viable HUVECs in 20 µL HUVEC culture medium were seeded in the bottom channel. The chips were inverted and HUVECs were allowed to adhere for at least 2 h to the porous PDMS membrane. Afterwards, the chips were inverted again, and the top channel was filled with enough Caco-2 culture medium to also cover the in- and outlets (~100 µL). Caco-2 cells were seeded in the top channel (0.15 × 10^6 viable cells in 50 µL Caco-2 culture medium). Caco-2 cells were also allowed to adhere for 2 h and then the channels were filled with the respective media and incubated overnight at 37 °C. On day 1, the inlet reservoirs of the Pods were filled with 3 mL of the respective degassed media, and the chips were connected to the Pods. The Pods were then placed into the Zoë module, and a flow at a rate of 30 µL/h (manufacturer’s instruction) was applied for both channels. From day 3 onwards, the HUVECs were cultured in HUVEC culture medium but with 0.5% FCS. On day 3, 10% lateral, peristalsis-like stretch was activated with a frequency of 0.15 Hz (manufacturer’s instruction). On day 8, the FCS concentration in the Caco-2 culture medium was reduced from 20% to 10%. Medium reservoirs were replenished with fresh medium 2–3 times per week.
# The cell-free organ-chips were previously utilized in experiments with cells and were prepared in the same way as described for the compound loss studies above. The Caco-2/HUVEC gut-on-chip was cultivated under the conditions described for standard cell culture until day 13. […] An introduction step with a high flow rate of 600 µL/h is recommended by the manufacturer to “saturate” the ad- and absorptions of compounds by the PDMS material. […] The samples from the bottom outlet were used directly for bioanalytical quantification. […]
# A quantitative bioanalysis was performed with a fit-for-purpose assay using protein precipitation followed by LC-MS/MS. […]
# P-gp [5] = test: Bidirectional permeability assay in Caco-2/HUVEC gut-on-chip; assay type: cell-based, human; conditions: human, pH 7.4; Caco-2/HUVEC gut-on-chip, day 10; 10 µM; no inhibitor; read-out: efflux ratio, control
# Description: (§1) The Caco-2/HUVEC gut-on-chip was prepared according to the Caco-2/HUVEC gut-on-chip protocol provided by Emulate Inc. Briefly, on day −1 of the protocol, the PDMS membrane was activated using Emulate reagent (ER) 1 dissolved in ER 2 solution at a concentration of 0.5 mg/mL. The top channels were filled with 50 µL and the bottom channels with 20 µL of ER 1 solution and then treated under UV light for 10 min. Next, activated ER 1 solution was aspirated from both channels and exchanged with fresh ER 1 solution after which the chips were again exposed to UV light for 5 min. The two channels were then subsequently washed with ER 2 solution followed by ice-cold PBS. After the PBS was fully aspirated from both channels, the chips were coated with 100 µg/mL Matrigel and 30 µg/mL collagen type I in PBS overnight at 37 °C. On day 0 of the protocol, both channels were washed with HUVEC culture medium before 0.14 × 10^6 viable HUVECs in 20 µL HUVEC culture medium were seeded in the bottom channel. The chips were inverted and HUVECs were allowed to adhere for at least 2 h to the porous PDMS membrane. Afterwards, the chips were inverted again, and the top channel was filled with enough Caco-2 culture medium to also cover the in- and outlets (~100 µL). Caco-2 cells were seeded in the top channel (0.15 × 10^6 viable cells in 50 µL Caco-2 culture medium). […]
# P-gp [6] = test: in vitro; conditions: human, Caco-2
# Description: Either the top (A–B direction) or bottom (B–A direction) channel served as the donor compartments and the respective other channels (A–B: bottom; B–A: top) as receiver compartments. […] Following an Emulate protocol, dosing of a cocktail of both compounds at 10 µM in transporter buffer was initiated via a drug introduction step (flow rate of 600 µL/h for 10 min), after which the outlets were aspirated. The outlet concentrations were determined after one hour (flow rate: 200 µL/h). […] The samples from the receiver outlets were used for the bioanalysis without dilution. The samples from the donor inlets, as well as outlets, were diluted 1:50 (v/v) in transport buffer. All samples were spiked with the internal standard and used for the LC-MS/MS analysis, as described in Section 2.8.
# Caco-2/HUVEC gut-on-chip [7] = test: Bidirectional permeability assay in Caco-2/HUVEC gut-on-chip; assay type: cell-based, human; conditions: coperfusion with elacridar 10 µM in Caco-2/HUVEC gut-on-chip
# Description: as §1
# P-gp [8] = molecular target: T1, P-gp (Homo sapiens, UniProt P08183); test: Inhibition of P-gp mediated Quinidine efflux in MDCK-MDR1 cells; assay type: cell-based; conditions: probe quinidine, Supplementary Table S2
# T1 construct: expressed in transfected cells; host or cells: MDCK-MDR1 cells
# T1 sequence (P08183 whole entry): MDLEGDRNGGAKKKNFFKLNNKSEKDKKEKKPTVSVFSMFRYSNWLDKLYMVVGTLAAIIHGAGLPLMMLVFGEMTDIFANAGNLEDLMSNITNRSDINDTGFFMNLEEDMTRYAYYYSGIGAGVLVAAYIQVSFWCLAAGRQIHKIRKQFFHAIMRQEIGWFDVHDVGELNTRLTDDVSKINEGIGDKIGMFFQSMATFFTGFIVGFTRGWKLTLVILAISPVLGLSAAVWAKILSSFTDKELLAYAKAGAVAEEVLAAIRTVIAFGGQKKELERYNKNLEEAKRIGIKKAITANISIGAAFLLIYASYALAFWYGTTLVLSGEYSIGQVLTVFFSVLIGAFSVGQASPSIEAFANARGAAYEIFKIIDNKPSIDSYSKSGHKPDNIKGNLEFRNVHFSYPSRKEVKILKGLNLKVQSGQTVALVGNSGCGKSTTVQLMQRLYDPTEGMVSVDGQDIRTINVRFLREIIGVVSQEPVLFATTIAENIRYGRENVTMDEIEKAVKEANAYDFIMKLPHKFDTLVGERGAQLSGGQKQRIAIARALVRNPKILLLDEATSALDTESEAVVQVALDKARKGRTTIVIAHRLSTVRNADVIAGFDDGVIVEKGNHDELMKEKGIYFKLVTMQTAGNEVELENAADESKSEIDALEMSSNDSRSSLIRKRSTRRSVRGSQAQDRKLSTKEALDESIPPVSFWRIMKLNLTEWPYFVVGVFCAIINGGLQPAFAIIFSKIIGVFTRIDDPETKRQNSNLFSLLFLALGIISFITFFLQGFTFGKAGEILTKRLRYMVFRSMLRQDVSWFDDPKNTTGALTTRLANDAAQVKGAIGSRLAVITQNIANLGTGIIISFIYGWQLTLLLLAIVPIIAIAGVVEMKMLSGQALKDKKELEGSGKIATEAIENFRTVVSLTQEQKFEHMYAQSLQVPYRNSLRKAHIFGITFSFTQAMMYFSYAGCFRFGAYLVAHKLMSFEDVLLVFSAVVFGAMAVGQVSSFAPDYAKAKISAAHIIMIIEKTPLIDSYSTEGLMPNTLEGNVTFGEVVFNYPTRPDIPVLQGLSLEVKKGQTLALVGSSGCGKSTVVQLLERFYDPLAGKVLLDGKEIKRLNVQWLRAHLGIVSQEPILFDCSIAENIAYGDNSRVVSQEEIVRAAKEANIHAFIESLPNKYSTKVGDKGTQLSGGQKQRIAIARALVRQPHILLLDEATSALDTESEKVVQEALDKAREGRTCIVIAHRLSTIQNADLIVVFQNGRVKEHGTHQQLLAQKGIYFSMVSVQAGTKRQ
# [9] = cell-free organ-chips, testosterone 10 µM, 200 µL/h
Structure (SMILES),Compound Loss Bottom Channel (%) ([1]; cell-free organ-chips),Compound Loss Top Channel (%) ([1]; cell-free organ-chips),other results
O=C1CC2(CCCC2)CC(=O)N1CCCCN1CCN(c2ncccn2)CC1 [Busiprone],30.5%,33.1%,–
CC(C)(C)NC(=O)[C@@H]1C[C@@H]2CCCC[C@@H]2CN1C[C@@H](O)[C@H](Cc1ccccc1)NC(=O)[C@H](CC(N)=O)NC(=O)c1ccc2ccccc2n1 [Saquinavir],21.9%,48.0%,–
C[C@]12CC[C@H]3[C@@H](CCC4=CC(=O)CC[C@@]43C)[C@@H]1CC[C@@H]2OS(=O)(=O)O [testosterone sulfate],–,–,fraction of the total amount of all metabolites (peak areas) (Caco-2/HUVEC gut-on-chip [2]): 0.3%
C[C@]12CC[C@H]3[C@@H](CCC4=CC(=O)CC[C@@]43C)[C@@H]1CC[C@@H]2O [Testosterone],35.1%,37.6%,"final testosterone concentration in the bottom channel and outlet ([3]; cell-free organ-chips, 10 µM via top inlet, 200 µL/h, 135 min): < 1000 nM; testosterone concentration in the top channel and outlet ([3]; cell-free organ-chips, 10 µM via top inlet, 200 µL/h, reached over 135 min): ~ 7000 nM; clearance (chip-specific / chip-intrinsic clearance) ([3]; cell-free organ-chips, collecting period 75-135 min, flow 200 µL/h): 11.7 µL/h; compound loss during the first 60 min of the collecting period [3, 9]: 719.1 pmol/h; compound loss in the last 60 min of the collecting period [3, 9]: 116.5 pmol/h; compound loss corresponding to chip-intrinsic clearance ([3]; corresponds to 11.7 µL/h at flow 200 µL/h): 6%; maximum testosterone concentration (top channel and outlet) (Caco-2/HUVEC gut-on-chip [4]; Caco-2/HUVEC gut-on-chip, 10 µM via top inlet, 200 µL/h, 135 min): < 2000 nM; time to steady state (Caco-2/HUVEC gut-on-chip [4]; Caco-2/HUVEC gut-on-chip, first sample time point): ≤ 15 min; clearance (total) in Caco-2/HUVEC gut-on-chip (Caco-2/HUVEC gut-on-chip [4]; collecting period 75-135 min, flow 200 µL/h): 172.1 µL/h; metabolic clearance in the gut-on-chip (Caco-2/HUVEC gut-on-chip [4]; total clearance minus chip-specific clearance, flow 200 µL/h): 160.4 µL/h; CYP3A4-related hydroxylation of testosterone (Caco-2/HUVEC gut-on-chip [2]; Caco-2/HUVEC gut-on-chip): did not detect"
Cc1nnc2n1-c1sc(CCC(=O)N3CCOCC3)cc1C(c1ccccc1Cl)=NC2 [Apafant],8.0%,15.0%,"efflux ratio at 1 h, 10 µM (P-gp [5]): 22.2; efflux ratio (P-gp [6]): 12.4 ± 7.8"
COc1cc2c(cc1OC)CN(CCc1ccc(NC(=O)c3cccc4c(=O)c5cccc(OC)c5[nH]c34)cc1)CC2 [Elacridar],–,–,inhibition of the efflux of Apafant (Caco-2/HUVEC gut-on-chip [7]): completely; IC90 (P-gp [8]): ~1000 nM
C[C@]12CC[C@H]3[C@@H](CCC4=CC(=O)CC[C@@]43C)[C@@H]1CC[C@@H]2O[C@@H]1O[C@H](C(=O)O)[C@@H](O)[C@H](O)[C@H]1O [testosterone glucuronide],–,–,fraction of the total amount of all metabolites (peak areas) (Caco-2/HUVEC gut-on-chip [2]): 3.2%
Cc1c(-c2ccc(O)cc2)n(Cc2ccc(OCCN3CCCCCC3)cc2)c2ccc(O)cc12 [Bazedoxifene],26.0%,56.4%,–
CC(C)c1nc(N(C)S(C)(=O)=O)nc(-c2ccc(F)cc2)c1/C=C/[C@@H](O)C[C@@H](O)CC(=O)O [Rosuvastatin],7.9%,12.6%,–
C[C@]12CCC(=O)C=C1CC[C@@H]1[C@@H]2CC[C@]2(C)C(=O)CC[C@@H]12 [4-androstenedione],–,–,"compound loss in cell-free organ-chips (in words, relative to testosterone) ([1]; Supplementary Table S1): much higher compound loss; fraction of the total amount of all metabolites (peak areas) (Caco-2/HUVEC gut-on-chip [2]): 96.5%"
C=C[C@H]1C[N@@]2CC[C@H]1C[C@@H]2[C@@H](O)c1ccnc2ccc(OC)cc12 [Quinidine],13.4%,0.3%,–
CCOC(=O)C1=C(C)NC(C)=C(C(=O)OC)C1c1cccc(Cl)c1Cl (centres unmarked) [Felodipine],84.0%,79.0%,–
CC(C)c1c(C(=O)Nc2ccccc2)c(-c2ccccc2)c(-c2ccc(F)cc2)n1CC[C@@H](O)C[C@@H](O)CC(=O)O [Atorvastatin],7.4%,18.9%,–
O=C1[C@H](CC[C@H](O)c2ccc(F)cc2)[C@@H](c2ccc(O)cc2)N1c1ccc(F)cc1 [Ezetemibe],1.3%,0.0%,–
O[C@@H](COc1cccc2ncccc12)CN1CCN([C@@H]2c3ccccc3[C@@H]3[C@H](c4ccccc42)C3(F)F)CC1 [Zosuquidar],99.0%,97.0%,"compound loss after 1 h of perfusion ([1]; cell-free organ-chips, 10 µM): ~100%"
Cc1ncc2n1-c1ccc(Cl)cc1C(c1ccccc1F)=NC2 [Midazolam],67.8%,72.1%,–
CCN(CC)CC#CCOC(=O)C(O)(c1ccccc1)C1CCCCC1 (centres unmarked) [Oxybutynin],100.0%,99.9%,"PDMS compound loss during the one-hour period (in words) ([1]; cell-free organ-chips, 10 µM, one hour, 200 µL/h, top and bottom channels): complete"
